Assay results from patent US20250282768A1 (Janssen Pharmaceutica NV, priority 2022, published 2025).

Tested on: p-IKKa levels in L363 (NIK translocated multiple myeloma) cells
Assay: Assay 2: Effect of compounds on p-IKKa levels in L363 (NIK translocated multiple myeloma) cells
Type: cell-based
Conditions: Homo sapiens, L-363, 6 h, read-out: Assay 2 IC50 (nM), p-IKKa (Ser 176/180) in BAFF stimulated L363 cells with MG132, 6 h; average if tested more than once
Method in brief: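 L363 cells incubated overnight ± 250 ng/ml BAFF, then 6 h at 37 °C with compound (0.3% DMSO) ± 10 μM MG132. Lysates assayed for p-IKKa (Ser176/180) by AlphaLISA SureFire. IC50 from sigmoidal fit of % inhibition normalized to BAFF/MG132-stimulated and unstimulated controls.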

| SMILES | IC50 [nM] |
| --- | --- |
| CN1CC[C@@](O)(c2cc(-c3cccc(-c4ccnc(NCc5cnn(C)c5)n4)n3)no2)C1=O [Example 368, (R)-3-Hydroxy-1-methyl-3-(3-(6-(2-(((1-methyl-1H-pyrazol-4-yl)methyl)amino)pyrimidin-4-yl)pyridin-2-yl)isoxazol-5-yl)pyrrolidin-2-one] | 50 to 500 |
| CN1CC[C@@](O)(c2cc(-c3cccc(-c4ccnc(Nc5cnn(C6CC6)c5)n4)n3)no2)C1=O [Example 124, (R)-3-(3-(6-(2-((1-Cyclopropyl-1H-pyrazol-4-yl)amino)pyrimidin-4-yl)pyridin-2-yl)isoxazol-5-yl)-3-hydroxy-1-methylpyrrolidin-2-one] | < 50 |
| CCO[C@@H]1COC[C@H]1Nc1nccc(-c2cccc(-c3cc([C@]4(O)CCN(C)C4=O)on3)n2)n1 [Example 352, (R)-3-(3-(6-(2-(((trans)-4-Ethoxytetrahydrofuran-3-yl)amino)pyrimidin-4-yl)pyridin-2-yl)isoxazol-5-yl)-3-hydroxy-1-methylpyrrolidin-2-one] | 50 to 500 |
| C[C@H](Nc1nccc(-c2cccc(-c3cc([C@]4(O)CCN(C)C4=O)on3)n2)n1)c1ccn2ccnc2c1 (single isomer, unassigned) [Example 165] | 50 to 500 |
| CN1CC[C@@](O)(c2cc(-c3cccc(-c4ccnc(Nc5cnc6c(c5)COCC6)n4)n3)no2)C1=O [Example 468, (R)-3-(3-(6-(2-((7,8-Dihydro-5H-pyrano[4,3-b]pyridin-3-yl)amino)pyrimidin-4-yl)pyridin-2-yl)isoxazol-5-yl)-3-hydroxy-1-methylpyrrolidin-2-one] | < 50 |
| CC(Nc1nccc(-c2cccc(-c3cc([C@]4(O)CCN(C)C4=O)on3)n2)n1)c1cc[nH]n1 (stereo partly drawn) [Example 147, (3R)-3-(3-(6-(2-((1-(1H-Pyrazol-3-yl)ethyl)amino)pyrimidin-4-yl)pyridin-2-yl)isoxazol-5-yl)-3-hydroxy-1-methylpyrrolidin-2-one] | 50 to 500 |
| CN1CC[C@@](O)(c2cc(-c3cccc(-c4ccnc(Nc5cnn6ccccc56)n4)n3)no2)C1=O [Example 53, (R)-3-Hydroxy-1-methyl-3-(3-(6-(2-(pyrazolo[1,5-a]pyridin-3-ylamino)pyrimidin-4-yl)pyridin-2-yl)isoxazol-5-yl)pyrrolidin-2-one] | < 50 |
| C[C@@H](Nc1nccc(-c2cccc(-c3cc([C@]4(O)CCN(C)C4=O)on3)n2)n1)c1cn2ccccc2n1 [Example 393, (R)-3-Hydroxy-3-(3-(6-(2-(((R)-1-(imidazo[1,2-a]pyridin-2-yl)ethyl)amino)pyrimidin-4-yl)pyridin-2-yl)isoxazol-5-yl)-1-methylpyrrolidin-2-one] | 50 to 500 |
| COCCn1ccc(Nc2nccc(-c3cccc(-c4cc([C@]5(O)CCN(C)C5=O)on4)n3)n2)n1 (single isomer, unassigned) [Example 199, (*R)-3-Hydroxy-3-(3-(6-(2-((1-(2-methoxyethyl)-1H-pyrazol-3-yl)amino)pyrimidin-4-yl)pyridin-2-yl)isoxazol-5-yl)-1-methylpyrrolidin-2-one] | < 50 |
| Cc1cc(-c2cc([C@]3(O)CCN(C)C3=O)on2)nc(-c2ccnc(Nc3cnn(C)c3)n2)c1 [Example 99, (R)-3-Hydroxy-1-methyl-3-(3-(4-methyl-6-(2-((1-methyl-1H-pyrazol-4-yl)amino)pyrimidin-4-yl)pyridin-2-yl)isoxazol-5-yl)pyrrolidin-2-one] | < 50 |
| CN1CC[C@@](O)(c2cc(-c3cccc(-c4ccnc(Nc5ccnc(C(F)F)c5)n4)n3)no2)C1=O [Example 294, (R)-3-(3-(6-(2-((2-(Difluoromethyl)pyridin-4-yl)amino)pyrimidin-4-yl)pyridin-2-yl)isoxazol-5-yl)-3-hydroxy-1-methylpyrrolidin-2-one] | < 50 |
| CN1CC[C@@](O)(c2cc(-c3cccc(-c4ccnc(N[C@H]5CCCOC5)n4)n3)no2)C1=O [Example 454, (R)-3-Hydroxy-1-methyl-3-(3-(6-(2-(((S)-tetrahydro-2H-pyran-3-yl)amino)pyrimidin-4-yl)pyridin-2-yl)isoxaozl-5-yl)pyrrolidin-2-one] | 50 to 500 |
| C[C@H](Nc1nccc(-c2cccc(-n3cc([C@]4(O)CCN(C)C4=O)nn3)n2)n1)c1ncccn1 (single isomer, unassigned) [Example 143] | 50 to 500 |
| CN1CC[C@@](O)(c2cc(-c3cccc(-c4ccnc(Nc5cc(Cl)n(C)n5)n4)n3)no2)C1=O [Example 279, (R)-3-(3-(6-(2-((5-Chloro-1-methyl-1H-pyrazol-3-yl)amino)pyrimidin-4-yl)pyridin-2-yl)isoxazol-5-yl)-3-hydroxy-1-methylpyrrolidin-2-one] | 50 to 500 |
| CN1CC[C@@](O)(c2cc(-c3cccc(-c4ccnc(N[C@@H]5CCCOC5)n4)n3)no2)C1=O [Example 455, (R)-3-Hydroxy-1-methyl-3-(3-(6-(2-(((R)-tetrahydro-2H-pyran-3-yl)amino)pyrimidin-4-yl)pyridin-2-yl)isoxazol-5-yl)pyrrolidin-2-one] | > 500 |
| CO[C@@H](CNc1nccc(-c2cccc(-c3cc([C@]4(O)CCN(C)C4=O)on3)n2)n1)C(F)(F)F (single isomer, unassigned) [Example 463, (R)-3-Hydroxy-1-methyl-3-(3-(6-(2-(((*S)-3,3,3-trifluoro-2-methoxypropyl)amino)pyrimidin-4-yl)pyridin-2-yl)isoxazol-5-yl)pyrrolidin-2-one] | 50 to 500 |

| SMILES | IC50 [nM] |
| --- | --- |
| [2H]C1([2H])N(C)C(=O)[C@](O)(c2cc(-c3cccc(-c4ccnc(Nc5cnn(CC)c5)n4)n3)no2)C1([2H])[2H] [Example 7, (R)-3-(3-(6-(2-((1-Ethyl-1H-pyrazol-4-yl)amino)pyrimidin-4-yl)pyridin-2-yl)isoxazol-5-yl)-3-hydroxy-1-methylpyrrolidin-2-one-4,4,5,5-d4] | < 50 |
| C[C@H](Nc1nccc(-c2cccc(-c3cc([C@]4(O)CCN(C)C4=O)on3)n2)n1)c1ncc[nH]1 [Example 370, (R)-3-(3-(6-(2-(((S)-1-(1H-Imidazol-2-yl)ethyl)amino)pyrimidin-4-yl)pyridin-2-yl)isoxazol-5-yl)-3-hydroxy-1-methylpyrrolidin-2-one] | > 500 |
| CN1CC[C@@](O)(c2cc(-c3cccc(-c4ccnc(N[C@H]5CCOC5)n4)c3)no2)C1=O [Example 11, (R)-3-Hydroxy-1-methyl-3-(3-(3-(2-(((S)-tetrahydrofuran-3-yl)amino)pyrimidin-4-yl)phenyl)isoxazol-5-yl)pyrrolidin-2-one] | > 500 |
| [2H]c1cc(-c2cccc(-n3cc([C@]4(O)CCN(C)C4=O)nn3)n2)nc(Nc2ccn(C)n2)n1 [Example 193, (R)-3-Hydroxy-1-methyl-3-(1-(6-(2-((1-methyl-1H-pyrazol-3-yl)amino)pyrimidin-4-yl-6-d)pyridin-2-yl)-1H-1,2,3-triazol-4-yl)pyrrolidin-2-one] | < 50 |
| CN1CC[C@@](O)(c2cc(-c3cccc(-c4ccnc(N5CCCn6ncc(N)c65)n4)c3)no2)C1=O [Example 19, (R)-3-(3-(3-(2-(3-Amino-6,7-dihydropyrazolo[1,5-a]pyrimidin-4(5H)-)pyrimidin-4-yl)phenyl)isoxazol-5-yl)-3-hydroxy-1-methylpyrrolidin-2-one] | > 500 |
| CN1CC[C@@](O)(c2cc(-c3cccc(-c4ccnc(Nc5nnn(C)n5)n4)n3)no2)C1=O [Example 267, (R)-3-Hydroxy-1-methyl-3-(3-(6-(2-((2-methyl-2H-tetrazol-5-yl)amino)pyrimidin-4-yl)pyridin-2-yl)isoxazol-5-yl)pyrrolidin-2-one] | 50 to 500 |
| CN1CC[C@@](O)(c2cc(-c3cccc(-c4ccnc(Nc5ccn(C)n5)n4)n3)[nH]n2)C1=O (single isomer, unassigned) [Example 85] | 50 to 500 |
| Cc1cccnc1[C@@H](C)Nc1nccc(-c2cccc(-c3cc([C@]4(O)CCN(C)C4=O)on3)n2)n1 (single isomer, unassigned) [Example 156] | 50 to 500 |
| CN1CC[C@](O)(c2cn(-c3cccc(-c4ccnc(Nc5cnn(C)c5Cl)n4)n3)cn2)C1=O (single isomer, unassigned) [Example 108] | 50 to 500 |
| COc1cc(-c2ccnc(Nc3cnn(C)c3)n2)nc(-n2cc([C@]3(O)CCN(C)C3=O)nn2)c1 [Example 136, (R)-3-Hydroxy-3-(1-(4-methoxy-6-(2-((1-methyl-1H-pyrazol-4-yl)amino)pyrimidin-4-yl)pyridin-2-yl)-1H-1,2,3-triazol-4-yl)-1-methylpyrrolidin-2-one] | < 50 |
| Cc1nocc1Nc1nccc(-c2cccc(-c3cc([C@]4(O)CCN(C)C4=O)on3)n2)n1 [Example 41, (R)-3-Hydroxy-1-methyl-3-(3-(6-(2-((3-methylisoxazol-4-yl)amino)pyrimidin-4-yl)pyridin-2-yl)isoxazol-5-yl)pyrrolidin-2-one] | < 50 |
| CCn1cc(Nc2nccc(-c3cccc(-c4cc([C@]5(O)CCN(C)C5=O)on4)n3)n2)cn1 [Example 46, (R)-3-(3-(6-(2-((1-Ethyl-1H-pyrazol-4-yl)amino)pyrimidin-4-yl)pyridin-2-yl)isoxazol-5-yl)-3-hydroxy-1-methylpyrrolidin-2-one] | < 50 |
| CN1CC[C@@](O)(c2cc(-c3cccc(-c4ccnc(Nc5ccnn6ccnc56)n4)n3)no2)C1=O [Example 127, (R)-3-Hydroxy-3-(3-(6-(2-(imidazo[1,2-b]pyridazin-8-ylamino)pyrimidin-4-yl)pyridin-2-yl)isoxazol-5-yl)-1-methylpyrrolidin-2-one] | 50 to 500 |
| CN(C)C(=O)Cn1ccc(Nc2nccc(-c3cccc(-c4cc([C@]5(O)CCN(C)C5=O)on4)n3)n2)n1 [Example 277, (R)-2-(3-((4-(6-(5-(3-Hydroxy-1-methyl-2-oxopyrrolidin-3-yl)isoxazol-3-yl)pyridin-2-yl)pyrimidin-2-yl)amino)-1H-pyrazol-1-yl)-N,N-dimethylacetamide] | 50 to 500 |
| C[C@H]1OCC[C@@H]1Nc1nccc(-c2cccc(-c3cc([C@]4(O)CCN(C)C4=O)on3)n2)n1 (single isomer, unassigned) [Example 346] | 50 to 500 |
